Our source for the melting point values is a melting point compilation (Tetko et al.; mined from patent text by program, amines drawn as free bases though some values may be those of a salt).

As usually defined, the melting point is the temperature of the solid-liquid transition.

`CC(C)(CC(O)(Cn1ccc2c1CCCC2=O)C(F)(F)F)c1cc(S(C)(=O)=O)cc2c1OCC2` (stereo not drawn) displayed a melting point of 207 to 208 °C.

`CCCCCc1ccc(-c2ccc(CC#N)cc2)cc1` displayed a melting point of 80 °C.

Compound `COc1c(C)cc(N2CCN(c3ccc([N+](=O)[O-])cc3)CC2)cc1C` returned a melting point of 135 °C.

Turning to `CCOC(=O)c1c(C)[nH]c2ccc(OC[C@@H](O)CN=[N+]=[N-])cc12`, the melting point lay in the range of 75 to 77 °C.

With `CCCC[C@H](NC(=O)[C@H](CC(C)C)NC(=O)C1CCN(C(C)=O)CC1)C(=O)CSCc1ccco1`, the melting point lay within 110 to 112 °C.

On to `CCCN1CC(NS(=O)(=O)N(CC)CC)CC2c3cccc4[nH]cc(c34)CC21` (stereo not drawn), for which the melting point fell in the range of 160 to 162 °C.

`CSc1nc(Cl)c(-c2ccc(C)cc2)c(Cl)n1` showed a melting point of 74 to 78 °C.

As for `N#Cc1c[nH]cc1-c1ccc(Cl)cc1C(=O)c1ccccc1F`, the melting point was 177 to 179 °C.

Regarding `CCCc1nc2c(N)nc3cc(-c4ccccc4)ccc3c2n1CCCC(C)N(OC)C(=O)NC(C)C` (stereo not drawn), the melting point was 101 to 103 °C.

`CCOC(=O)c1ccc(N(N)C(=O)OC(C)(C)C)cc1` had a melting point of 74 °C.

Consider `CC(=O)c1cccc(S(=O)(=O)NCc2ccccc2-c2ccccc2C(=O)NCc2ccccc2)c1`, for which the melting point stood at 182 °C.

Compound `N#Cc1ccc(-c2ccc(C=Cc3ccccc3)o2)nc1` registered a melting point of 154 to 155 °C.

`CN(C)C(=O)c1nc2n(n1)-c1ccc(Cl)cc1C(c1ccccc1F)=NC2` yielded a melting point of 180 to 182 °C.

`CCCCS(=O)(=O)OCCN(CCBr)c1c(C(=O)NCCOP(=O)(O)O)cc([N+](=O)[O-])cc1[N+](=O)[O-]`: the melting point fell in the range of 123 to 125 °C.

In turn, `Cc1cc(C)n2nc(OC(=S)N(C)C)cc2n1` came in with a melting point of 216 to 217 °C.

`O=C(Nc1ccccc1)c1nn(-c2cccc(C(F)(F)F)c2)ccc1=O` showed a melting point of 181 to 182 °C.

`NS(=O)(=O)c1cc(C(=O)O)cc([N+](=O)[O-])c1Sc1ccccc1` gave a melting point of 245 to 247 °C.

The compound `COc1ccc(C(O)(c2ccc(OC)cc2)C(O)(c2ccccc2)c2ccccc2)cc1` came in with a melting point of 163 to 165 °C.

`Cc1nc(NC(=O)CCc2ccccc2)sc1C(=O)NCc1ccccc1`: the melting point is 63 to 65 °C.

In turn, `CCCc1cc(Cl)c2oc(C(=O)c3ccc(Cl)cc3)c(C)c2c1OC(=O)c1ccc(Cl)cc1` returned a melting point of 177 to 182 °C.

As to `CS(=O)(=O)c1ccc(-n2cncc2-c2ccc(Cl)nc2)cc1`, the melting point lay in the range of 191 to 192 °C.

As for `CCN1c2ncccc2C(=S)N(C)c2cccnc21`, the melting point fell in the range of 157 to 158 °C.

For the compound `O=C(O)c1cccc(-c2ccc3c(c2)C(c2ccc(Cl)cc2Cl)CCO3)c1` (stereo not drawn), the melting point fell in the range of 223 to 224 °C.

Compound `CCOC(=O)c1ccc(C#CC(O)c2cc(C(C)(C)C)cc(C(C)(C)C)c2O)cc1` (stereo not drawn) registered a melting point of 142 to 144 °C.

As to `O=C(NC(Cc1ccc(OCc2ccccc2)cc1)c1noc(=O)[nH]1)c1cn2cc(-c3ccc(Cl)cc3)ccc2n1` (stereo not drawn), the melting point turned out to be 167 °C.

As for `CCOC1=NS(=O)(=O)c2cc(I)ccc21`, the melting point lay in the range of 185 to 190 °C.

The compound `Cc1c(Br)c2c(c(C)c1NC(=O)OC(C)(C)C)CC(C)O2` (stereo not drawn) gave a melting point of 115 to 116 °C.

For `CC(C)C(Cl)C(=O)Nc1c(C(=O)CC(=O)Nc2ccccn2)cccc1C(F)(F)F` (stereo not drawn), the melting point was in the range of 136 to 138 °C.

Take `CC(=O)Oc1cc2c(s1)CCN(C(C(=O)C1CC1)c1ccccc1F)C2` (stereo not drawn): the melting point is 120 to 122 °C.

Compound `COC(=O)c1[nH]c(-c2ccccc2)c(N=Cc2ccccc2)c1C(=O)OC` had a melting point of 218 to 220 °C.

In the case of `CC1(C)C=C(C(O)CN)c2ccccc21` (stereo not drawn), the melting point is 93 °C.

`CC(=O)Cn1c(CO)nc(C(C)C)c1Sc1cc(Cl)cc(Cl)c1` yielded a melting point of 165 to 167 °C.

Compound `CCn1nc(-c2ccccc2)c(C(C)=O)c(Nc2cccc3nnc(C)cc23)c1=O` showed a melting point of 235 to 238 °C.
